Measurements taken from patent publication US20240018133A1, “MODULATORS OF THE INTEGRATED STRESS PATHWAY” (Calico Life Sciences LLC, priority 2019, published 2024).

System: ATF4 luciferase reporter (human full-length ATF4 5'-UTR fused to firefly luciferase) in HEK293T cells
Test: ATF4-Luc assay (in vitro model of VWMD): HEK293T cells carrying ATF4 luciferase reporter, tunicamycin-treated
Type: cell-based
Details: Homo sapiens, HEK-293T, 1 μg/mL tunicamycin, 7 hours, One Glo luminescence
In short: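 Reporter cells were stably generated by retroviral transduction and puromycin selection, then seeded at 30,000 cells/well. Next day, cells received 1 μg/mL tunicamycin with 200 nM test compound for 7 h, and luciferase luminescence was read with a one-step reagent. Values reported as EC50.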

Q: How did the EC50 turn out when `O=C(NC12CCC(NC(=O)C3CC(=O)c4cc(Cl)ccc4O3)(C1)C2)c1ccc(OC(F)(F)F)cn1` (centres unmarked) [Compound 311, N-{4-[(6-chloro-4-oxo-3,4-dihydro-2H-1-benzopyran-2-carbonyl)amino]bicyclo[2.1.1]hexan-1-yl}-5-(trifluoromethoxy)pyridine-2-carboxamide] was run?
A: 50 to 250 nM

Q: How did the EC50 turn out when `O=C(COc1ccc(Cl)c(F)c1)NC12CC(NC(=O)c3cc(=O)c4cccc(Cl)c4o3)(C1)C2` [Compound 294, 8-chloro-N-{3-[2-(4-chloro-3-fluorophenoxy)acetamido]bicyclo[1.1.1]pentan-1-yl}-4-oxo-4H-1-benzopyran-2-carboxamide] was run?
A: 500 to 2000 nM

Q: `O=C(NC12CC(NC(=O)[C@H]3C[C@@H](O)c4cc(Cl)ccc4O3)(C1)C2)c1cnc(C2CNC2)o1` [Compound 389, 2-(azetidin-3-yl)-N-(3-{[(2R,4R)-6-chloro-4-hydroxy-3,4-dihydro-2H-1-benzopyran-2-carbonyl]amino}bicyclo[1.1.1]pentan-1-yl)-1,3-oxazole-5-carboxamide] was tested. Which EC50 did it give?
A: > 2000 nM

Q: Which EC50 does the source give for `C[C@]1(C(=O)NC23CC(NC(=O)COc4ccc(Cl)c(F)c4)(C2)C3)Cc2cc(Cl)ccc2O1` [Compound 258, (2R)-5-chloro-N-{3-[2-(4-chloro-3-fluorophenoxy)acetamido]bicyclo[1.1.1]pentan-1-yl}-2-methyl-2,3-dihydro-1-benzofuran-2-carboxamide] here?
A: > 2000 nM

Q: With `O=C(COc1ccc(Cl)c(F)c1)NC12CC(NC(=O)C3=Cc4ccc(Cl)cc4OC3)(C1)C2` [Compound 317, 7-chloro-N-{3-[2-(4-chloro-3-fluorophenoxy)acetamido]bicyclo[1.1.1]pentan-1-yl}-2H-1-benzopyran-3-carboxamide] as the molecule, how does the EC50 read?
A: 10 to 50 nM

Q: For `O=C(NC12CC(NC(=O)[C@H]3C[C@@H](O)c4cc(Cl)ccc4O3)(C1)C2)c1cnc(C2CCC2)o1` [Compound 387, N-(3-{[(2R,4R)-6-chloro-4-hydroxy-3,4-dihydro-2H-1-benzopyran-2-carbonyl]amino}bicyclo[1.1.1]pentan-1-yl)-2-cyclobutyl-1,3-oxazole-5-carboxamide], which EC50 is on record?
A: 50 to 250 nM

Q: How did the EC50 turn out when `CCC1(O)CC(C(=O)NC23CC(NC(=O)COc4ccc(Cl)c(F)c4)(C2)C3)Oc2ccc(Cl)cc21` (centres unmarked) [Compound 297, 6-chloro-N-{3-[2-(4-chloro-3-fluorophenoxy)acetamido]bicyclo[1.1.1]pentan-1-yl}-4-ethyl-4-hydroxy-3,4-dihydro-2H-1-benzopyran-2-carboxamide] was run?
A: < 10 nM

Q: With `O=C(COc1ccc(Cl)c(F)c1)NC12CC(NC(=O)[C@H]3CC(=O)c4ccccc4O3)(C1)C2` [Compound 268, (2R)—N-{3-[2-(4-chloro-3-fluorophenoxy)acetamido]bicyclo[1.1.1]pentan-1-yl}-4-oxo-3,4-dihydro-2H-1-benzopyran-2-carboxamide] as the molecule, how does the EC50 read?
A: 10 to 50 nM

Q: With `COc1ncc(OCC(=O)NC23CC(NC(=O)[C@H]4CC(=O)c5cc(Cl)ccc5O4)(C2)C3)cn1` [Compound 333, (2R)-6-chloro-N-(3-{2-[(2-methoxypyrimidin-5-yl)oxy]acetamido}bicyclo[1.1.1]pentan-1-yl)-4-oxo-3,4-dihydro-2H-1-benzopyran-2-carboxamide] as the molecule, how does the EC50 read?
A: 250 to 500 nM

Q: For `O=C(COc1ccc(Cl)c(F)c1)NC12CC(NC(=O)c3cc(=O)c4ccc(Cl)cc4o3)(C1)C2` [Compound 235, 7-chloro-N-{3-[2-(4-chloro-3-fluorophenoxy)acetamido]bicyclo[1.1.1]pentan-1-yl}-4-oxo-4H-1-benzopyran-2-carboxamide], which EC50 is on record?
A: 10 to 50 nM

Q: Which EC50 does the source give for `O=C(COc1ccc(Cl)c(F)c1)NC12CC(NC(=O)[C@H]3C[C@H](O)c4cc(Cl)c(F)cc4O3)(C1)C2` [Compound 367, (2R,4S)-6-chloro-N-{3-[2-(4-chloro-3-fluorophenoxy)acetamido]bicyclo[1.1.1]pentan-1-yl}-7-fluoro-4-hydroxy-3,4-dihydro-2H-1-benzopyran-2-carboxamide] here?
A: < 10 nM

Q: `C[C@@]1(C(=O)NC23CC(NC(=O)COc4ccc(Cl)c(F)c4)(C2)C3)Oc2ccc(Cl)cc2C1=O` [Compound 320, (2R)-5-chloro-N-{3-[2-(4-chloro-3-fluorophenoxy)acetamido]bicyclo[1.1.1]pentan-1-yl}-2-methyl-3-oxo-2,3-dihydro-1-benzofuran-2-carboxamide] was tested. Which EC50 did it give?
A: 500 to 2000 nM

Q: Which EC50 does the source give for `CCc1ncc(C(=O)NC23CC(NC(=O)[C@H]4C[C@@H](O)c5cc(Cl)ccc5O4)(C2)C3)o1` [Compound 384, N-(3-{[(2R,4R)-6-chloro-4-hydroxy-3,4-dihydro-2H-1-benzopyran-2-carbonyl]amino}bicyclo[1.1.1]pentan-1-yl)-2-ethyl-1,3-oxazole-5-carboxamide] here?
A: 50 to 250 nM

Q: How did the EC50 turn out when `O=C(COc1ccc(Cl)c(Cl)c1)NC12CC(NC(=O)[C@H]3C[C@@H](O)c4cc(F)c(F)cc4O3)(C1)C2` [Compound 207, (2R,4R)—N-{3-[2-(3,4-dichlorophenoxy)acetamido]bicyclo[1.1.1]pentan-1-yl}-6,7-difluoro-4-hydroxy-3,4-dihydro-2H-1-benzopyran-2-carboxamide] was run?
A: < 10 nM

Q: Which EC50 does the source give for `CC(C)(O)CN1C[C@@H](C(=O)NC23CC(NC(=O)COc4ccc(Cl)c(F)c4)(C2)C3)Oc2ccc(Cl)cc21` [Compound 348, (2S)-6-chloro-N-{3-[2-(4-chloro-3-fluorophenoxy)acetamido]bicyclo[1.1.1]pentan-1-yl}-4-(2-hydroxy-2-methylpropyl)-3,4-dihydro-2H-1,4-benzoxazine-2-carboxamide] here?
A: 50 to 250 nM

Q: Which EC50 does the source give for `O=C(COc1ccc(Cl)c(F)c1)NC12CC(NC(=O)[C@@H]3CC(=O)c4ccccc4O3)(C1)C2` [Compound 269, (2S)—N-{3-[2-(4-chloro-3-fluorophenoxy)acetamido]bicyclo[1.1.1]pentan-1-yl}-4-oxo-3,4-dihydro-2H-1-benzopyran-2-carboxamide] here?
A: 50 to 250 nM

Q: For `O=C(COc1ccc(Cl)c(F)c1)NC12CC(NC(=O)[C@H]3C[C@@H](O)c4cc(F)c(Cl)cc4O3)(C1)C2` (single isomer, unassigned) [Compound 206], which EC50 is on record?
A: < 10 nM

Q: Which EC50 does the source give for `O=C(NC12CCC(NC(=O)[C@@H]3CC(=O)c4cc(Cl)ccc4O3)(CC1)CC2)c1ccc(OC(F)(F)F)cn1` [Compound 358, N-(4-{[(2S)-6-chloro-4-oxo-3,4-dihydro-2H-1-benzopyran-2-carbonyl]amino}bicyclo[2.2.2]octan-1-yl)-5-(trifluoromethoxy)pyridine-2-carboxamide] here?
A: > 2000 nM

Q: `O=C(COc1ccc(Cl)c(F)c1)NC12CCC(NC(=O)[C@@H]3C[C@H](O)c4cc(Cl)ccc4O3)(CC1)CC2` [Compound 306, (2S,4S)-6-chloro-N-{4-[2-(4-chloro-3-fluorophenoxy)acetamido]bicyclo[2.2.2]octan-1-yl}-4-hydroxy-3,4-dihydro-2H-1-benzopyran-2-carboxamide] was tested. Which EC50 did it give?
A: 10 to 50 nM

Q: `O=C(NC12CC(NC(=O)[C@H]3C[C@@H](O)c4cc(Cl)ccc4O3)(C1)C2)c1cnn(-c2ccccc2)c1` [Compound 390, N-(3-{[(2R,4R)-6-chloro-4-hydroxy-3,4-dihydro-2H-1-benzopyran-2-carbonyl]amino}bicyclo[1.1.1]pentan-1-yl)-1-phenyl-1H-pyrazole-4-carboxamide] was tested. Which EC50 did it give?
A: 10 to 50 nM

Q: For `O=C(COc1ccc(Cl)c(F)c1)NC12CC(NC(=O)[C@H]3C[C@H](NC4(CO)CC4)c4cc(Cl)ccc4O3)(C1)C2` (racemic) [Compound 343, rac-(2R,4S)-6-chloro-N-{3-[2-(4-chloro-3-fluorophenoxy)acetamido]bicyclo[1.1.1]pentan-1-yl}-4-{[1-(hydroxymethyl)cyclopropyl]amino}-3,4-dihydro-2H-1-benzopyran-2-carboxamide], which EC50 is on record?
A: 10 to 50 nM

Q: `O=C(COc1ccc(Cl)c(F)c1)NC12CC(NC(=O)[C@H]3C=Cc4cc(Cl)ccc4O3)(C1)C2` [Compound 307, (2R)-6-chloro-N-{3-[2-(4-chloro-3-fluorophenoxy)acetamido]bicyclo[1.1.1]pentan-1-yl}-2H-1-benzopyran-2-carboxamide] was tested. Which EC50 did it give?
A: < 10 nM

Q: Which EC50 does the source give for `O=C(COc1ccc(Cl)c(F)c1)NC12CC(NC(=O)[C@@H]3C[C@@H](NCC(F)(F)F)c4cc(Cl)ccc4O3)(C1)C2` [Compound 323, (2S,4R)-6-chloro-N-{3-[2-(4-chloro-3-fluorophenoxy)acetamido]bicyclo[1.1.1]pentan-1-yl}-4-[(2,2,2-trifluoroethyl)amino]-3,4-dihydro-2H-1-benzopyran-2-carboxamide] here?
A: 50 to 250 nM

Q: With `O=C(COc1ccc(Cl)c(F)c1)NC12CC(NC(=O)C3CC(=O)c4cc(Cl)ccc4O3)(C1)C2` (centres unmarked) [Compound 186, 6-chloro-N-{3-[2-(4-chloro-3-fluorophenoxy)acetamido]bicyclo[1.1.1]pentan-1-yl}-4-oxo-3,4-dihydro-2H-1-benzopyran-2-carboxamide] as the molecule, how does the EC50 read?
A: < 10 nM

Q: Which EC50 does the source give for `C[C@@]1(O)C[C@@H](C(=O)NC23CC(NC(=O)COc4ccc(Cl)c(F)c4)(C2)C3)Oc2ccc(Cl)cc21` (single isomer, unassigned) [Compound 288] here?
A: < 10 nM

Q: With `O=C(COc1ccc(Cl)c(F)c1)NC12CC(NC(=O)[C@H]3CN(CC4(O)CC4)c4cc(Cl)ccc4O3)(C1)C2` [Compound 325, (2R)-6-chloro-N-{3-[2-(4-chloro-3-fluorophenoxy)acetamido]bicyclo[1.1.1]pentan-1-yl}-4-[(1-hydroxycyclopropyl)methyl]-3,4-dihydro-2H-1,4-benzoxazine-2-carboxamide] as the molecule, how does the EC50 read?
A: 10 to 50 nM

Q: For `O=C(NC12CCC(NC(=O)[C@@H]3C[C@H](O)c4cc(Cl)ccc4O3)(CC1)[C@@H](O)C2)c1cc(C(F)F)no1` (single isomer, unassigned) [Compound 216], which EC50 is on record?
A: 250 to 500 nM

Q: `O=C(COc1ccc(Cl)c(F)c1)NC12CC(NC(=O)C3(F)CC(O)c4cc(Cl)ccc4O3)(C1)C2` (centres unmarked) [Compound 350, 6-chloro-N-{3-[2-(4-chloro-3-fluorophenoxy)acetamido]bicyclo[1.1.1]pentan-1-yl}-2-fluoro-4-hydroxy-3,4-dihydro-2H-1-benzopyran-2-carboxamide] was tested. Which EC50 did it give?
A: < 10 nM

Q: With `COC(C)(C)CN1C[C@@H](C(=O)NC23CC(NC(=O)COc4ccc(Cl)c(F)c4)(C2)C3)Oc2ccc(Cl)cc21` [Compound 191, (2S)-6-chloro-N-{3-[2-(4-chloro-3-fluorophenoxy)acetamido]bicyclo[1.1.1]pentan-1-yl}-4-(2-methoxy-2-methylpropyl)-3,4-dihydro-2H-1,4-benzoxazine-2-carboxamide] as the molecule, how does the EC50 read?
A: 500 to 2000 nM
